Consider one compound from ChEMBL document CHEMBL5329194, “Design, Synthesis, and Evaluation of 18F-Labeling CYP1B1 PET Tracer Based on 2-Phenylquinazolin” (Bioorg Med Chem Lett, 2023).

Series [1] can be described thus: Drug uptake in human HCT-15 cells measured after 30 mins. It is filed as ADME, cell-based. The note with it: hct-15, 0.5 h.
For the next series, the target named is T1, Cytochrome P450 1A2 (Homo sapiens, UniProt P05177).
T1 sequence (P05177 whole entry): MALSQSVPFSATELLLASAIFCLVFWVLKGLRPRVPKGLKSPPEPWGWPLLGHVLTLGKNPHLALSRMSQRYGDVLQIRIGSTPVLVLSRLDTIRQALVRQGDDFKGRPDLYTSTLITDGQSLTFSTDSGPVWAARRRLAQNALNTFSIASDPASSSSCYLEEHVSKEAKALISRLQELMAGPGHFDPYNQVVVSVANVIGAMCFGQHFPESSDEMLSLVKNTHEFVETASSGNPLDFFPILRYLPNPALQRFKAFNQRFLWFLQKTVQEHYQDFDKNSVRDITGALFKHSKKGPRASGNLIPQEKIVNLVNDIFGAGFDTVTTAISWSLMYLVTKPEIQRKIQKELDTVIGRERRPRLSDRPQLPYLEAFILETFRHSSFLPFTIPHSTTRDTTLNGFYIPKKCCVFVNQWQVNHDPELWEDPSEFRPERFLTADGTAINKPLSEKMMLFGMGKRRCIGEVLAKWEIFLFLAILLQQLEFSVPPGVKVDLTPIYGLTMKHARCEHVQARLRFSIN
As to the kind of experiment: Inhibition of CYP1A2 (unknown origin). It is filed as ADME.

Another series deals with CYP1A1 versus CYP1B1. Put plainly: Selectivity ratio of IC50 for inhibition of CYP1A1 (unknown origin) to IC50 for inhibition of CYP1B1 (unknown origin). The series is classed as ADME. The note with it: human; read-out: Ratio IC50.
For another series, the target named is T2, Cytochrome P450 1A1 (Homo sapiens, UniProt P04798).
T2 sequence (P04798 whole entry): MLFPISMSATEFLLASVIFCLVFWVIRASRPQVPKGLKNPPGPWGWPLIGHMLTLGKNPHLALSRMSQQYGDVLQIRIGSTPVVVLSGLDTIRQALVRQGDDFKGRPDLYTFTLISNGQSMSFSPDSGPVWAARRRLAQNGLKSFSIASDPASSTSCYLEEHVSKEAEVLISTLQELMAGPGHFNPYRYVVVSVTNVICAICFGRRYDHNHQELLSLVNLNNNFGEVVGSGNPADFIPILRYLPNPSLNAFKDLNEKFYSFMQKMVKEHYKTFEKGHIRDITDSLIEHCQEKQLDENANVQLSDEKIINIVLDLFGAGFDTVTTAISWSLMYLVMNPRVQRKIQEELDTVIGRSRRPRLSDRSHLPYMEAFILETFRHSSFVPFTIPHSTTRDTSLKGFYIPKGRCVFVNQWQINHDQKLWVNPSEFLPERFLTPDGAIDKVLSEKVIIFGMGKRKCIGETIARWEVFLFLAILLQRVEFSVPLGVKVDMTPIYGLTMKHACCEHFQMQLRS
Put plainly: Inhibition of CYP1A1 (unknown origin). The series is classed as ADME.

In a further series the target is T3, Cytochrome P450 1B1 (Homo sapiens, UniProt Q16678).
T3 sequence (Q16678 whole entry): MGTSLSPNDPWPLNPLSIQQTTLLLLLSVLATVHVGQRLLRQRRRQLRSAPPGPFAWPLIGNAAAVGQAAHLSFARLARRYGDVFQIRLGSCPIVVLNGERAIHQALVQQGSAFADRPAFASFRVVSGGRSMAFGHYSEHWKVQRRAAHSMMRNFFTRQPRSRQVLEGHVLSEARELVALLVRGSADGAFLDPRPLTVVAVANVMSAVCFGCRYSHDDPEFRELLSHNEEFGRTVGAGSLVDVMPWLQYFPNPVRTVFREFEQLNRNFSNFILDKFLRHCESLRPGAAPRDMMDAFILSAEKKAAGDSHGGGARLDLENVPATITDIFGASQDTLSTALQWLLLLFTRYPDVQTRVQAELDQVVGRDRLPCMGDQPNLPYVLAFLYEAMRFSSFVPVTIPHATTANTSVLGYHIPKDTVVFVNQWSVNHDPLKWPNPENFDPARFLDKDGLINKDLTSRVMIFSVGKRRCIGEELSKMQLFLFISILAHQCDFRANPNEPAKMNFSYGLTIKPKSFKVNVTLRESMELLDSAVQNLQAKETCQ
As to the kind of experiment: Inhibition of CYP1B1 (unknown origin) by EROD assay. It is filed as ADME.

Another series deals with CYP1A2 versus CYP1B1. As to the kind of experiment: Selectivity ratio of IC50 for inhibition of CYP1A2 (unknown origin) to IC50 for inhibition of CYP1B1 (unknown origin). It is filed as ADME. Particulars: human; read-out: Ratio IC50.
The nature of series [2]: Drug uptake in human MCF7 cells measured after 30 mins. It is filed as ADME, cell-based. The note with it: mcf7, 0.5 h.

SMILES strings stand for the structures.

For the compound `FCCOCCOCCOc1nc(-c2ccc(Br)cc2)nc2ccccc12`, the Drug uptake is 25.61% in series [1] and 21.56% in series [2]. The half-maximal inhibitory concentration (IC50) against Cytochrome P450 1A2 is more than 1000 nM; on Cytochrome P450 1A1, more than 1000 nM; at Cytochrome P450 1B1 it was 48.2 nM. For the same compound, the selectivity ratio in the series on CYP1A1 versus CYP1B1 and with CYP1A2 versus CYP1B1 was more than 20.7 in each case.

What is called IC50 is the concentration that inhibits the measured activity by half. Higher therefore signals weaker potency in that assay.
